Assay results from patent US11000491B2, “Amino-aryl-benzamide compounds and methods of use thereof” (HEPANOVA, INC., priority 2017, dated 2021).
pEC50: −log10 of the molar value. Where two headings read alike, the source gives them in different places.

Assays:
Type in all cases: cell-based
Huh7 cells = experiment: LD content in Huh7 cells pre-treated with insulin, Oil-Red-O staining, absorbance OD 540 nm; settings: procedure of Example 3, read-out: LD content inhibition (EC50)
Method: FIG. 6. […] Spectrophotometric absorbance of untreated or HPN-01-treated Huh7 cells pre-incubated with 1 mM insulin is shown. LD contents were stained using Oil Red O, and measured by determining spectrophotometer absorbance under OD 540 nm.
Huh7 cells were mock treated or pre-treated with 1 mM insulin, and subsequently treated with indicated amounted of HPN-01.
The ability of each HPN-01 derivative obtained from the synthesis methods described above, to inhibit LD formation in hepatocytes, was tested using the procedure outlined in Example 3. The results of this analysis are shown below in Table 6 (second column).

SREBP-2 = SREBP-2 expression in cultured primary human hepatocytes; settings: procedure of Example 6, read-out: SREBP-2 mRNA inhibition (EC50)
Method: (§1) FIG. 9. Effects of HPN-01 on the expression of SREBP-1 (master regulator of hepatic glucose metabolism and fatty acid synthesis) and SREBP-2 (master regulator of cholesterol homeostasis in cells) in cultured primary human hepatocytes.
(§2) Cultured primary human hepatocytes were treated with various concentrations of HPN-01, and the expression levels of SREBP-1 (master regulator of hepatic glucose metabolism and fatty acid synthesis) and SREBP-2 (master regulator of cholesterol homeostasis in cells) were subsequently determined.
(§3) The ability of each HPN-01 derivative obtained from the synthesis methods described above, to inhibit SREBP-1 and SREBP-2 mRNA expression in primary hepatocytes, was tested using the procedure outlined in Example 6. The results of this analysis are shown in Table 6 (third and fourth columns).

SREBP-1 = SREBP-1 expression in cultured primary human hepatocytes; settings: procedure of Example 6, read-out: SREBP-1 mRNA inhibition (EC50)
Method: as §1, §2, §3

[1] = Homo sapiens, Huh-7, Huh7 cells

| pEC50 (Huh7 cells; [1]) | Molecule | pEC50 (SREBP-2; Homo sapiens, Hepatocyte) | pEC50 (SREBP-1; Homo sapiens, Hepatocyte) | pEC50 (Huh7 cells; Huh7 cells) | pEC50 (SREBP-2) | pEC50 (SREBP-1) |
| --- | --- | --- | --- | --- | --- | --- |
| 5.90 | N=C(N)Nc1ccc(-c2cc(-c3ccc(Cl)cc3)cc(C(N)=O)c2N)cc1 [HPN-01417, 4′-amino-4-chloro-4″-guanidino-[1,1′:3′,1″-terphenyl]-5′-carboxamide] | 5.31 | 5.50 | – | – | – |
| 5.55 | CC(=O)Nc1ccc(/C=C/c2cc(C(N)=O)c(N)c(-c3ccc(S(N)(=O)=O)cc3)c2)cc1 [HPN-01106, (E)-5-(4-acetamidostyryl)-2-amino-4′-sulfamoyl-[1,1′-biphenyl]-3-carboxamide] | 5.19 | 5.20 | – | – | – |
| – | 4′-acetamido-4-chloro-4″-ureido-[1,1′:3′,1″-terphenyl]-5′-carboxamide [HPN-01505] | – | – | 6.23 | 5.62 | 5.87 |
| 6.11 | NC(=O)c1cc(C#CCOC(=O)c2ccccn2)cc(-c2ccc(S(N)(=O)=O)cc2)c1N [HPN-01221, 3-(6-amino-5-carbamoyl-4′-sulfamoyl-[1,1′-biphenyl]-3-yl)prop-2-yn-1-yl picolinate] | 5.46 | 5.78 | – | – | – |
| 6.05 | NC(=O)c1cc(/C=C/C(=O)OCCc2ccccc2)cc(-c2ccc(S(N)(=O)=O)cc2)c1N [HPN-01123, phenethyl (E)-3-(6-amino-5-carbamoyl-4′-sulfamoyl-[1,1′-biphenyl]-3-yl)acrylate] | 5.35 | 5.46 | – | – | – |
| 5.96 | CC(=O)Oc1ccc(/C=C/c2cc(C(N)=O)c(N)c(-c3ccc(S(N)(=O)=O)cc3)c2)cc1 [HPN-01105, (E)-4-(2-(6-amino-5-carbamoyl-4′-sulfamoyl-[1,1′-biphenyl]-3-yl)vinyl)phenyl acetate] | 5.28 | 5.49 | – | – | – |
| 5.19 | NC(=O)c1cc(-c2ccc(Cl)cc2)cc(NCCc2ccc(S(N)(=O)=O)cc2)c1N [HPN-01425, 4-amino-4′-chloro-5-((4-sulfamoylphenethyl)amino)-[1,1′-biphenyl]-3-carboxamide] | 5.46 | 5.55 | – | – | – |
| 6.13 | NC(=O)c1cc(-c2ccc(Cl)cc2)cc(Nc2cccc(S(N)(=O)=O)c2)c1N [HPN-01413, 4-amino-4′-chloro-5-((3-sulfamoylphenyl)amino)-[1,1′-biphenyl]-3-carboxamide] | 5.57 | 5.82 | – | – | – |
| 6.24 | NC(=O)c1cc(-c2ccc(Cl)cc2)cc(Oc2cccc(-c3nn[nH]n3)c2)c1N [HPN-01410, 5-(3-(2H-tetrazol-5-yl)phenoxy)-4-amino-4′-chloro-[1,1′-biphenyl]-3-carboxamide] | 5.39 | 5.68 | – | – | – |
| 6.19 | Nc1c(C(=O)Nc2ccccc2)cc(-c2ccc(Br)cc2)cc1-c1ccc(S(N)(=O)=O)cc1 [HPN-01612, 4′-amino-4-bromo-N-phenyl-4″-sulfamoyl-[1,1′:3′,1″-terphenyl]-5′-carboxamide] | 5.26 | 5.51 | – | – | – |
| 6.01 | NC(=O)c1cc(C#Cc2ccc(Br)cc2)cc(-c2ccc(S(N)(=O)=O)cc2)c1N [HPN-01207, 2-amino-5-((4-bromophenyl)ethynyl)-4′-sulfamoyl-[1,1′-biphenyl]-3-carboxamide] | 5.56 | 5.71 | – | – | – |
| – | (E)-2-amino-5-(3-oxo-3-(phenylamino)prop-1-en-1-yl)-4′-sulfamoyl-[1,1′-biphenyl]-3-carboxamide [HPN-01125] | – | – | 6.42 | 5.37 | 5.55 |
| 5.99 | CC(=O)OCC#Cc1cc(C(N)=O)c(N)c(-c2ccc(S(N)(=O)=O)cc2)c1 [HPN-01223, 3-(6-amino-5-carbamoyl-4′-sulfamoyl-[1,1′-biphenyl]-3-yl)prop-2-yn-1-yl acetate] | 5.38 | 5.58 | – | – | – |
| 6.49 | Nc1c(C(=O)Nc2ccc(O)c(O)c2)cc(-c2ccc(Cl)cc2)cc1-c1ccc(S(N)(=O)=O)cc1 [HPN-01617, 4′-amino-4-chloro-N-(3,4-dihydroxyphenyl)-4″-sulfamoyl-[1,1′:3′,1″-terphenyl]-5′-carboxamide] | 5.43 | 5.73 | – | – | – |
| 5.89 | CC(C)OC(=O)c1ccc(-c2cc(C(N)=O)c(N)c(-c3ccc(S(N)(=O)=O)cc3)c2)cc1 [HPN-01303, isopropyl 4′-amino-5′-carbamoyl-4″-sulfamoyl-[1,1′:3′,1″-terphenyl]-4-carboxylate] | 4.98 | 5.18 | – | – | – |
| 5.52 | Nc1c(C(=O)NCCO)cc(-c2ccc(Cl)cc2)cc1-c1ccc(S(N)(=O)=O)cc1 [HPN-01607, 4′-amino-4-chloro-N-(2-hydroxyethyl)-4″-sulfamoyl-[1,1′:3′,1″-terphenyl]-5′-carboxamide] | 4.90 | 5.17 | – | – | – |
| 6.16 | COC(=O)c1cccc(Oc2cc(C(N)=O)c(N)c(-c3ccc(S(N)(=O)=O)cc3)c2)c1 [HPN-01320, methyl 3-((6-amino-5-carbamoyl-4′-sulfamoyl-[1,1′-biphenyl]-3-yl)oxy)benzoate] | 5.67 | 5.96 | – | – | – |
| 6.02 | COc1cccc(C(=O)OCC#Cc2cc(C(N)=O)c(N)c(-c3ccc(S(N)(=O)=O)cc3)c2)c1 [HPN-01216, 3-(6-amino-5-carbamoyl-4′-sulfamoyl-[1,1′-biphenyl]-3-yl)prop-2-yn-1-yl 3-methoxybenzoate] | 5.10 | 5.36 | – | – | – |
| – | butyl (E)-3-(6-amino-5-carbamoyl-4′-sulfamoyl-[1,1′-biphenyl]-3-yl)acrylate [HPN-01117] | – | – | 5.94 | 5.08 | 5.16 |
| 6.09 | CC(=O)Oc1cccc(/C=C/c2cc(C(N)=O)c(N)c(-c3ccc(S(N)(=O)=O)cc3)c2)c1 [HPN-01110, (E)-3-(2-(6-amino-5-carbamoyl-4′-sulfamoyl-[1,1′-biphenyl]-3-yl)vinyl)phenyl acetate] | 5.44 | 5.65 | – | – | – |
| 5.92 | COC(=O)c1ccc(-c2cc(C(N)=O)c(N)c(-c3ccc(S(N)(=O)=O)cc3)c2)cc1 [HPN-01301, methyl 4′-amino-5′-carbamoyl-4″-sulfamoyl-[1,1′:3′,1″-terphenyl]-4-carboxylate] | 5.27 | 5.46 | – | – | – |
| 6.28 | NC(=O)c1cc(C#CCOC(=O)c2ccccc2Cl)cc(-c2ccc(S(N)(=O)=O)cc2)c1N [HPN-01210, 3-(6-amino-5-carbamoyl-4′-sulfamoyl-[1,1′-biphenyl]-3-yl)prop-2-yn-1-yl 2-chlorobenzoate] | 5.53 | 5.72 | – | – | – |
| 5.61 | NC(=O)c1cc(/C=C/C(=O)Nc2ccc(O)cc2)cc(-c2ccc(S(N)(=O)=O)cc2)c1N [HPN-01122, (E)-2-amino-5-(3-((4-hydroxyphenyl)amino)-3-oxoprop-1-en-1-yl)-4′-sulfamoyl-[1,1′-biphenyl]-3-carboxamide] | 5.14 | 5.02 | – | – | – |
| 6.02 | NC(=O)c1cc(C#CCOC(=O)c2cccc(O)c2)cc(-c2ccc(S(N)(=O)=O)cc2)c1N [HPN-01219, 3-(6-amino-5-carbamoyl-4′-sulfamoyl-[1,1′-biphenyl]-3-yl)prop-2-yn-1-yl 3-hydroxybenzoate] | 5.16 | 5.33 | – | – | – |
| 5.86 | NC(=O)c1cc(/C=C/c2ccc(Br)cc2)cc(-c2ccc(S(N)(=O)=O)cc2)c1N [HPN-01109, (E)-2-amino-5-(4-bromostyryl)-4′-sulfamoyl-[1,1′-biphenyl]-3-carboxamide] | 5.35 | 5.57 | – | – | – |
| 6.17 | NC(=O)c1cc(/C=C/C(=O)OCc2ccccc2)cc(-c2ccc(S(N)(=O)=O)cc2)c1N [HPN-01120, benzyl (E)-3-(6-amino-5-carbamoyl-4′-sulfamoyl-[1,1′-biphenyl]-3-yl)acrylate] | 5.29 | 5.19 | – | – | – |
| 6.34 | NC(=O)c1cc(/C=C/c2cccc(Cl)c2)cc(-c2ccc(S(N)(=O)=O)cc2)c1N [HPN-01102, (E)-2-amino-5-(3-chlorostyryl)-4′-sulfamoyl-[1,1′-biphenyl]-3-carboxamide] | 5.47 | 5.79 | – | – | – |
| 6.22 | NC(=O)c1cc(-c2ccc(Cl)cc2)cc(Nc2ccc(S(N)(=O)=O)cc2)c1N [HPN-01402, 4-amino-4′-chloro-5-((4-sulfamoylphenyl)amino)-[1,1′-biphenyl]-3-carboxamide] | 5.60 | 5.93 | – | – | – |
| 5.72 | NC(=O)c1cc(-c2ccc(Cl)cn2)cc(-c2ccc(S(N)(=O)=O)cc2)c1N [HPN-01308, 2-amino-5-(5-chloropyridin-2-yl)-4′-sulfamoyl-[1,1′-biphenyl]-3-carboxamide] | 4.95 | 5.20 | – | – | – |
| 6.12 | CCCC(=O)Oc1cccc(/C=C/c2cc(C(N)=O)c(N)c(-c3ccc(S(N)(=O)=O)cc3)c2)c1 [HPN-01111, (E)-3-(2-(6-amino-5-carbamoyl-4′-sulfamoyl-[1,1′-biphenyl]-3-yl)vinyl)phenyl butyrate] | 5.61 | 5.68 | – | – | – |
